# Data from US11691951B2 (Curtana Pharmaceuticals, Inc., priority 2015, dated 2023).
# Tested on: GBM8 cells (human glioblastoma neurosphere cell culture)
# Experiment: GBM8 viability assay (Cell Titer Glo luminescence, 3 days)
# Format: cell-based
# Conditions: 72 h, 3 days incubation
# Method: Example 283: GBM4 and GBM8 Viability Assay
# Cell culture medium was prepared from a NSA proliferation kit (Neurocult) and NeuroCult supplements (Stemcell Tech Cat. #05751) and treated with 20 μL of 10 μg/mL rh EGF, 10 μL of 10 μg/mL rh bFGF and 10 μL of 0.2% Heparin. In this medium, human glioblastoma cells were cultured in ultra-low attachment tissue culture flasks until 1×10^6 cells ml was achieved (GBM4 and GBM8 are distinct neurosphere cell cultures derived from these human patient tissues). GBM4 and GBM8 cells were dissociated and 10 mL of media containing 4000 human glioblastoma cells per 90 uL were transferred to an ultra-low binding 96-well plate and incubated at 37° C. overnight. On the following day, 10 μL of a 1% DMSO solution of test compound in assay medium was added to wells containing the cell suspension and the mixture incubated at 37° C. for 3 days. At this time, the plate was removed from the incubator and allowed to reach room temperature. After about 30 minutes, 50 μL of Cell Titer Glo solution was added to each well and the plate shaken for 1 minute at low speed. After 10 minutes luminescence was recorded using a Tecan Safire2 reader.
# Reduction in luminescence compared to DMSO only control wells was used to determine the percentage inhibition of cell growth. IC50s were calculated using the % inhibition of luminescence for serial dilutions of compounds fitted to a 4-parameter fit within the Prism (San Diego) curve fitting program.
row,SMILES,IC50 [nM]
1,Cc1cc(NCC(C)O)nc(NC(=O)Nc2ccc(OC(F)(F)F)cc2)n1 (stereo not shown) [Compound 95],< 1000
2,Cc1cc(NCC(O)CO)nc(NC(=O)Nc2ccc(OC(F)(F)F)cc2)n1 (stereo not shown) [Compound 96],< 1000
3,"CNCCNc1cc(C)nc(NC(=O)Nc2ccc(OC(F)(F)F)cc2)n1 [Compound 98, 1-(4-methyl-6-((2-(methylamino)ethyl)amino)pyrimidin-2-yl)-3-(4-(trifluoromethoxy)phenyl)urea]",< 1000
4,"CNCCCNc1cc(C)nc(NC(=O)Nc2ccc(OC(F)(F)F)cc2)n1 [Compound 99, 1-[4-Methyl-6-(3-methylamino-propylamino)-pyrimidin-2-yl]-3-(4-trifluoromethoxy-phenyl)-urea]",< 1000
5,"Cc1cc(NCCCN(C)C)nc(NC(=O)Nc2ccc(F)c(C(F)(F)F)c2)n1 [Compound 101, 3-(dimethylamino)-1-(2-{3-[4-fluoro-3-(trifluoromethyl)phenyl]ureido}-6-methyl-4-pyrimidinylamino)propane]",< 1000
6,"Cc1cc(NCCCO)nc(NC(=O)Nc2ccc(F)c(C(F)(F)F)c2)n1 [Compound 102, 1-(4-fluoro-3-(trifluoromethyl)phenyl)-3-(4-((3-hydroxypropyl)amino)-6-methylpyrimidin-2-yl)urea]",< 1000
7,"Cc1cc(NCCN(C)C)nc(NC(=O)Nc2ccc(F)c(C(F)(F)F)c2)n1 [Compound 103, 1-(4-fluoro-3-(trifluoromethyl)phenyl)-3-(4-((2-(dimethylamino)ethyl)amino)-6-methylpyrimidin-2-yl)urea]",< 1000
8,Cc1cc(NCCCCN(C)C)nc(NC(=O)Nc2ccc(F)c(C(F)(F)F)c2)n1 [Compound 104],< 1000
9,Cc1cc(NCCO)nc(NC(=O)Nc2ccc(F)c(C(F)(F)F)c2)n1 [Compound 105],< 1000
10,Cc1cc(NCCCCO)nc(NC(=O)Nc2ccc(F)c(C(F)(F)F)c2)n1 [Compound 106],< 1000
11,Cc1cc(NCCOCCO)nc(NC(=O)Nc2ccc(F)c(C(F)(F)F)c2)n1 [Compound 107],< 1000
12,Cc1cc(NCC(O)CO)nc(NC(=O)Nc2ccc(F)c(C(F)(F)F)c2)n1 (stereo not shown) [Compound 108],< 1000
13,Cc1cc(NCCN)nc(NC(=O)Nc2ccc(F)c(C(F)(F)F)c2)n1 [Compound 110],< 1000
14,Cc1cc(NCCCN)nc(NC(=O)Nc2ccc(F)c(C(F)(F)F)c2)n1 [Compound 111],< 1000
15,Cc1cc(NCCCCN)nc(NC(=O)Nc2ccc(F)c(C(F)(F)F)c2)n1 [Compound 112],< 1000
16,CNCCCN(C)c1cc(C)nc(NC(=O)Nc2ccc(F)c(C(F)(F)F)c2)n1 [Compound 113],1000 to 10000
17,Cc1cc(NCCCc2cnc[nH]2)nc(NC(=O)Nc2ccc(F)c(C(F)(F)F)c2)n1 [Compound 115],< 1000
18,Cc1cc(NCCC(N)=O)nc(NC(=O)Nc2ccc(F)c(C(F)(F)F)c2)n1 [Compound 116],< 1000
19,CCNc1cc(C)nc(NC(=O)Nc2ccc(F)c(C(F)(F)F)c2)n1 [Compound 117],< 1000
20,"CNCCNc1cc(C)nc(NC(=O)Nc2ccc(F)c(C(F)(F)F)c2)n1 [Compound 120, 1-(4-fluoro-3-(trifluoromethyl)phenyl)-3-(4-methyl-6-((2-(methylamino)ethyl)amino)pyrimidin-2-yl)urea]",< 1000
21,CNCCCNc1cc(C)nc(NC(=O)Nc2ccc(F)c(C(F)(F)F)c2)n1 [Compound 121],< 1000
22,Cc1cc(NCC2CCCNC2)nc(NC(=O)Nc2ccc(F)c(C(F)(F)F)c2)n1 (stereo not shown) [Compound 122],< 1000
23,Cc1cc(NC2CCNC2)nc(NC(=O)Nc2ccc(F)c(C(F)(F)F)c2)n1 (stereo not shown) [Compound 123],< 1000
24,COc1ccc(NC(=O)Nc2nc(C)cc(NCCCN(C)C)n2)cc1 [Compound 125],< 1000
25,COc1ccc(NC(=O)Nc2nc(C)cc(NCCCCO)n2)cc1 [Compound 126],< 1000
26,COc1ccc(NC(=O)Nc2nc(C)cc(NCCN)n2)cc1 [Compound 127],< 1000
27,CCCNc1cc(C)nc(NC(=O)Nc2ccc(OC)cc2)n1 [Compound 128],< 1000
28,CCCCNc1cc(C)nc(NC(=O)Nc2ccc(OC)cc2)n1 [Compound 129],< 1000

row,SMILES,IC50 [nM]
1,COc1ccc(NC(=O)Nc2nc(C)cc(NCCO)n2)cc1 [Compound 130],< 1000
2,COc1ccc(NC(=O)Nc2nc(C)cc(NCCCN)n2)cc1 [Compound 131],< 1000
3,COc1ccc(NC(=O)Nc2nc(C)cc(NCCOCCO)n2)cc1 [Compound 132],< 1000
4,COc1ccc(NC(=O)Nc2nc(C)cc(NCC(C)O)n2)cc1 (stereo not shown) [Compound 133],< 1000
5,COc1ccc(NC(=O)Nc2nc(C)cc(NCCc3ccccn3)n2)cc1 [Compound 134],1000 to 10000
6,COc1ccc(NC(=O)Nc2nc(C)cc(NCC(O)CO)n2)cc1 (stereo not shown) [Compound 135],< 1000
7,COc1ccc(NC(=O)Nc2nc(C)cc(NCCCCN)n2)cc1 [Compound 137],< 1000
8,COc1ccc(NC(=O)Nc2nc(C)cc(NCCN(C)C)n2)cc1 [Compound 138],< 1000
9,CCNc1cc(C)nc(NC(=O)Nc2ccc(OC)cc2)n1 [Compound 139],< 1000
10,COc1cccc(NC(=O)Nc2nc(C)cc(NCCCN(C)C)n2)c1 [Compound 141],1000 to 10000
11,COc1cccc(NC(=O)Nc2nc(C)cc(NCCCCN)n2)c1 [Compound 142],1000 to 10000
12,COc1cccc(NC(=O)Nc2nc(C)cc(NCCCN)n2)c1 [Compound 143],1000 to 10000
13,COc1cccc(NC(=O)Nc2nc(C)cc(NCCN)n2)c1 [Compound 144],1000 to 10000
14,COc1cccc(NC(=O)Nc2nc(C)cc(NCCN(C)C)n2)c1 [Compound 145],1000 to 10000
15,COc1cccc(NC(=O)Nc2nc(C)cc(NCCCCO)n2)c1 [Compound 146],1000 to 10000
16,COc1cccc(NC(=O)Nc2nc(C)cc(NCC(C)O)n2)c1 (stereo not shown) [Compound 147],1000 to 10000
17,COc1cccc(NC(=O)Nc2nc(C)cc(NCCCCN(C)C)n2)c1 [Compound 148],1000 to 10000
18,COc1cccc(NC(=O)Nc2nc(C)cc(NCCCc3ncc[nH]3)n2)c1 [Compound 149],1000 to 10000
19,COc1cccc(NC(=O)Nc2nc(C)cc(NCC(O)CO)n2)c1 (stereo not shown) [Compound 151],1000 to 10000
20,"CNCCNc1cc(C)nc(NC(=O)Nc2cccc(OC)c2)n1 [Compound 153, 1-(3-methoxyphenyl)-3-(4-methyl-6-((2-(methylamino)ethyl)amino)pyrimidin-2-yl)urea]",1000 to 10000
21,CNCCCCNc1cc(C)nc(NC(=O)Nc2cccc(OC)c2)n1 [Compound 154],1000 to 10000
22,COc1cccc(NC(=O)Nc2nc(C)cc(NCC3CCCNC3)n2)c1 (stereo not shown) [Compound 155],1000 to 10000
23,"Cc1cc(NCCCN(C)C)nc(NC(=O)Nc2ccc(F)c(Cl)c2)n1 [Compound 157, 1-(3-chloro-4-fluorophenyl)-3-(4-((3-(dimethylamino)propyl)amino)-6-methylpyrimidin-2-yl)urea]",< 1000
24,"Cc1cc(NCCCN)nc(NC(=O)Nc2ccc(F)c(Cl)c2)n1 [Compound 158, 1-(4-((3-aminopropyl)amino)-6-methylpyrimidin-2-yl)-3-(3-chloro-4-fluorophenyl)urea]",< 1000
25,Cc1cc(NCCN(C)C)nc(NC(=O)Nc2ccc(F)c(Cl)c2)n1 [Compound 159],1000 to 10000
26,Cc1cc(NCCCCN)nc(NC(=O)Nc2ccc(F)c(Cl)c2)n1 [Compound 160],< 1000
27,Cc1cc(NCCO)nc(NC(=O)Nc2ccc(F)c(Cl)c2)n1 [Compound 161],< 1000
